Source: patent publication US7026488B2, “Antitumor agents and process for producing the same” (priority 2001, dated 2006)
Entries after “also recorded” stand apart in the source; their conditions may differ.

Key:
Solubility in water = format: physicochemical; conditions: for i.v. injection
tumor = conditions: administered into the tumor feeding artery, oily formulation; K. Doi et al. 1999; cited from earlier work
[1] = biological target: T1, purified heme oxygenase fraction derived from rat spleen (Rattus norvegicus, UniProt P06762); assay: Inhibitory activity against heme oxygenase (bilirubin formation, Lineweaver-Burk plot); format: biochemical
T1 construct: purified heme oxygenase fraction derived from rat spleen; from tissue; host or cells: rat spleen
T1 sequence (P06762 1-289): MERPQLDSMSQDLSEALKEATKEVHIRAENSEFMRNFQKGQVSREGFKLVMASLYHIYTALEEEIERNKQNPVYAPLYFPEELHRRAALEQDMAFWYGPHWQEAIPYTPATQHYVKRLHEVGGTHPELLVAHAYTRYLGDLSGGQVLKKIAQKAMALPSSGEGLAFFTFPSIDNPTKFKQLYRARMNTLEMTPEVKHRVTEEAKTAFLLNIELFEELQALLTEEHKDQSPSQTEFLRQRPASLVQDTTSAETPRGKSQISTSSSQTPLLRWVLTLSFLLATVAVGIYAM
Description: This was examined using purified heme oxygenase fraction derived from rat spleen. It was assayed at 37° C. in the presence of hemin, the substrate of heme oxygenase, cofactor (NADPH, […]), and cytosolic fraction containing bilirubin reductase, in which biliverdin formed by the oxygenase is converted to bilirubin.
Bilirubin was extracted with chloroform and quantified by absorption at 465 nm. By the addition of either PEG-ZnPP, or unmodified ZnPP, or no inhibitor, their effect on heme oxidase was examined, and the Lineweaver-Burk plot of heme oxygenase activity was plotted during the inhibition by PEG-ZnPP. […] Mode of inhibition was competitive, and the value was equivalent to that of unmodified ZnPP.

[2] = system: heme oxygenase in S 180 sarcoma tumor tissue; assay: Inhibition of heme oxygenase in solid tumor model in mouse; format: in vivo; conditions: ddY mice, S 180 tumor
Description: In male ddY mice with mean body weight of 35 g, S 180 sarcoma cells were implanted in the dorsal skin, and when solid tumor size become 5 mm in cross diameter after about one week, PEG-ZnPP dissolved in distilled water were injected via tail vein (i.v.) at 0.5 mg ZnPP equivalent per Kg body weight. The solid tumors were removed after 24 hr, and heme oxygenase activity was quantified similarly as described in Example 1. Control mouse received distilled water without PEG-ZnPP. The tumor specimens were obtained and treated similarly.

[3] = system: Lung adenocarcinoma cell line A549 cells; assay: Oxidative stress in cultured tumor cells (DCDHF fluorescence, flow cytometry); format: cell-based; conditions: 5 μM and 10 μM, 8 hrs, compared with no drug, FIG. 3
Description: Lung adenocarcinoma cell line A549 cells were plated in plastic dish and after overnight culture, 5 μM and 10 μM of PEG-ZnPP dissolved in distilled water were added to the culture dishes. Then, 8 hrs after cultivation at 37° C., a reagent that quantifies oxidative stress, called dichlorodihydrofluorescein diacetyl ester (DCDHF) was added and allowing cell culture for 30 minutes. Under oxidative stress, this DCDHF will be become oxidized and will fluoresce due to oxystress was generated by formation of fluorescein in cells.
Quantification of fluorescence intensity represents the extent of oxidative stress induced in the cells. Then, cultured cells were trypsinized and recovered cells were subjected to the flow cytometrory analysis and fluorescence cell population was quantified. The results are shown in FIG. 3, where the effect of PEG-ZnPP at 5 μM, 10 μM, is compared with that of no drug.

sarcoma S180 = assay: Antitumor effect in mice bearing solid tumor; format: in vivo, mouse; conditions: ddY mice, i.v. 30, 30 and 50 n mole on days 10, 13 and 15 after implantation, FIG. 4
Description: (§1) Similar to Experiment 3 above, sarcoma S180 of mice implanted under the dosal skin of ddY mice, and after 10, 13 and 15 days after tumor implantation, PEG-ZnPP at 30 n mole, 30 n mole and 50 n mole (3 times only), respectively, was injected into the tail vein respectively (see also arrow marks in FIG. 4). Control mice received distilled water instead of PEG-ZnPP.

[4] = Change of body weight in mice bearing solid tumor; format: in vivo, mouse; conditions: ddY mice bearing S180, during or after i.v. administration, FIG. 5
Description: as §1

C=CC1=C(C)c2cc3[n-]c(cc4nc(cc5[n-]c(cc1n2)c(C)c5C=C)C(C)=C4CCC(=O)O)c(CCC(=O)O)c3C.[Zn+2] [ZnPP, zinc protoporphyrin]
Solubility in water (Solubility in water): almost insoluble in water | Solubility in water (Solubility in water; listed as Unmodified ZnPP): could not be administered i.v. because of its difficulty in solubility; also recorded: Impossible to solubilize | Antitumor effect in rats (tumor): confirmed antitumor effect in rats

Polyethylene Glycol Conjugated ZnPP [PEG-ZnPP]
Ki ([1]; 37° C., hemin substrate, NADPH, cytosolic fraction with bilirubin reductase, read-out: inhibitory constant (Ki) against heme oxygenase): 0.13 µM | Inhibition of heme oxygenase (in words) ([1]; FIG. 2): inhibits the heme oxygenase in a dose dependent manner | Mode of inhibition of heme oxygenase ([1]; Lineweaver-Burk plot, FIG. 2): competitive | Activity of heme oxygenase in tumor tissue ([2]; i.v. tail vein 0.5 mg ZnPP equivalent per Kg, tumor removed after 24 hr, control 4.17 ± 1.07 (P < 0.02)): 2.30 ± 0.54 n mol bilirubin/mg protein/hr | Effect on intratumor heme oxygenase activity (in words) ([2]; i.v. tail vein, 24 hr): significant reduction of the heme oxygenase activity | intracellular oxidative state (DCDHF fluorescence) [3]: higher intracellular oxidative state in the dose dependent manner | Tumor growth (tumor size) compared with control group (sarcoma S180): remarkable suppression of tumor growth | Body weight change [4]: no remarkable body weight loss
